Data published in DBAASP.
Values after ≈ are worked out from the molar mass of the structure shown. Values joined by “and” are separate entries in the source; they are usually repeats but may differ in a detail not shown here. Equal values may be shown once. Each block holds one compound with its values, some of them ahead of it.

Experiments:
Assay in all cases: ≥ marks a high value that may be exact or a test limit, other limits are often not marked, values filed in µg/mL are converted to µM
Staphylococcus aureus = tested on: Staphylococcus aureus
[1] = tested on: Staphylococcus aureus SAP 0017
[2] = tested on: Listeria monocytogenes NCTC 7973
[3] = tested on: Enterococcus faecalis ATCC 29212
Pseudomonas aeruginosa = tested on: Pseudomonas aeruginosa
Staphylococcus aureus MR = tested on: Staphylococcus aureus MR
[4] = tested on: Streptococcus pyogenes ATCC 19615
[5] = tested on: Staphylococcus epidermidis
[6] = tested on: Staphylococcus aureus ATCC 25923
Escherichia coli = tested on: Escherichia coli
Salmonella typhimurium = tested on: Salmonella typhimurium
Enterococcus faecalis = tested on: Enterococcus faecalis
[7] = tested on: Staphylococcus haemolyticus
Corynebacterium xerosis = tested on: Corynebacterium xerosis
Listeria monocytogenes = tested on: Listeria monocytogenes
[8] = tested on: Neisseria gonorrhoeae FA-19
[9] = tested on: Neisseria gonorrhoeae F-62
Candida albicans = tested on: Candida albicans
Escherichia coli D21 = tested on: Escherichia coli D21
[10] = tested on: Schizosaccharomyces pombe
[11] = tested on: Escherichia coli ATCC 25922
[12] = tested on: Yersinia pseudotuberculosis YPIII
[13] = tested on: Acinetobacter baumannii ATCC 19606
[14] = tested on: Staphylococcus epidermidis ATCC 12228
[15] = tested on: Pseudomonas syringae pv. tabaci 1918NCPPB
[16] = tested on: Staphylococcus aureus Cowan 1
[17] = tested on: Streptococcus pyogenes ATCC 21547
Saccharomyces cerevisiae = tested on: Saccharomyces cerevisiae
Acinetobacter junii RT-4 = tested on: Acinetobacter junii RT-4
[18] = tested on: Pseudomonas aeruginosa ATCC 15692
Staphylococcus capitis 1 = tested on: Staphylococcus capitis 1
Bacillus megaterium Bm11 = tested on: Bacillus megaterium Bm11
[19] = tested on: Candida albicans ATCC 10231
[20] = tested on: Escherichia coli IFO 12734
[21] = tested on: Bacillus subtilis IFO 3513
[22] = tested on: Staphylococcus aureus IFO 12732
[23] = tested on: Vibrio harveyi CGMCC 1.1593
Micrococcus luteus = tested on: Micrococcus luteus
Vibrio anguillarum = tested on: Vibrio anguillarum
Vibrio harveyi = tested on: Vibrio harveyi
Escherichia coli 363 = tested on: Escherichia coli 363
Aeromonas hydrophila = tested on: Aeromonas hydrophila
Aerococcus viridans = tested on: Aerococcus viridans
Bacillus subtilis = tested on: Bacillus subtilis

SMILES: CC[C@H](C)[C@H](N)C(=O)N[C@@H](CC(C)C)C(=O)N[C@@H](CCCCN)C(=O)N[C@@H](CCCCN)C(=O)N[C@@H](Cc1c[nH]c2ccccc12)C(=O)N1CCC[C@H]1C(=O)N[C@@H](Cc1c[nH]c2ccccc12)C(=O)N[C@@H](Cc1c[nH]c2ccccc12)C(=O)N1CCC[C@H]1C(=O)N[C@@H](Cc1c[nH]c2ccccc12)C(=O)N[C@@H](CCCN=C(N)N)C(=O)N[C@@H](CCCN=C(N)N)C(=O)N[C@@H](CCCCN)C(N)=O [ILKKWPWWPWRRK]
MIC (Staphylococcus aureus): 8.51 µM (≈ 16 µg/mL)
MIC [1]: 8.51 µM (≈ 16 µg/mL)
MIC [2]: 8.51 µM (≈ 16 µg/mL)
MIC [3]: > 34 µM
MIC (Pseudomonas aeruginosa): 8.51 µM (≈ 16 µg/mL)
MIC (Staphylococcus aureus MR): 8.51 µM (≈ 16 µg/mL)
MIC [4]: 4.25 µM (≈ 8 µg/mL)
MIC [5]: 4.25 µM and 2.13 µM
MIC [6]: 8.51 µM (≈ 16 µg/mL)
MIC (Escherichia coli): 2.13 µM and 4.25 µM
MIC (Salmonella typhimurium): ≥ 34 µM
MIC (Enterococcus faecalis): ≥ 34 µM
MIC [7]: 1.06 µM and 0.532 µM
MIC (Corynebacterium xerosis): 0.266 µM (≈ 0.5 µg/mL)

SMILES: CC[C@H](C)[C@@H]1NC(=O)[C@H](Cc2c[nH]c3ccccc23)NC(=O)CNC(=O)[C@H](CCCN=C(N)N)NC(=O)[C@@H]2CSSC[C@H](NC1=O)C(=O)N[C@@H](Cc1ccccc1)C(=O)N[C@H](C(=O)N[C@H](C(=O)NCC(=O)N[C@@H](CCCN=C(N)N)C(=O)O)C(C)C)CSSC[C@H](NC(=O)[C@H](CC(C)C)NC(=O)[C@H](CCCN=C(N)N)NC(=O)CNC(=O)CNC(=O)[C@@H](N)CCCN=C(N)N)C(=O)N[C@@H](Cc1ccc(O)cc1)C(=O)N2 [RGGRLCYCRGWICFCVGR]
MIC (Listeria monocytogenes): 0.902 µM (≈ 1.9 µg/mL)
MIC [8]: 1.66 µM (≈ 3.49 µg/mL)
MIC [9]: 0.57 µM (≈ 1.2 µg/mL)
MIC (Escherichia coli): 0.997 µM (≈ 2.1 µg/mL)
MIC (Candida albicans): 14.4 µM (≈ 30.3 µg/mL)

SMILES: CC[C@H](C)[C@H](NC(=O)[C@H](CCCN=C(N)N)NC(=O)CNC(=O)[C@H](CC(C)C)NC(=O)[C@H](Cc1ccccc1)NC(=O)[C@H](CCCCN)NC(=O)[C@H](CO)NC(=O)[C@H](Cc1ccccc1)NC(=O)[C@H](Cc1c[nH]c2ccccc12)NC(=O)[C@@H]1CCCN1C(=O)[C@H](CC(C)C)NC(=O)[C@@H](N)Cc1ccccc1)C(=O)N[C@@H](CC(C)C)C(N)=O [FLPWFSKFLGRIL]
MIC (Escherichia coli D21): 24 µM (≈ 39 µg/mL)
MIC [10]: 6 µM (≈ 9.74 µg/mL)
MIC [11]: 12 µM (≈ 19.5 µg/mL)
MIC [12]: 6 µM (≈ 9.74 µg/mL)
MIC [13]: 12 µM (≈ 19.5 µg/mL)
MIC [14]: 3 µM (≈ 4.87 µg/mL)
MIC [3]: 12 µM (≈ 19.5 µg/mL)
MIC [15]: 12 µM (≈ 19.5 µg/mL)
MIC [16]: 3 µM (≈ 4.87 µg/mL)
MIC [17]: 6 µM (≈ 9.74 µg/mL)
MIC (Saccharomyces cerevisiae): 12 µM (≈ 19.5 µg/mL)
MIC (Acinetobacter junii RT-4): 12 µM (≈ 19.5 µg/mL)
MIC [6]: 3 µM (≈ 4.87 µg/mL)
MIC [18]: ≥ 48 µM
MIC (Staphylococcus capitis 1): 3 µM (≈ 4.87 µg/mL)
MIC (Bacillus megaterium Bm11): 3 µM (≈ 4.87 µg/mL)
MIC [19]: 12 µM (≈ 19.5 µg/mL)

Continued, in another order:

MIC [20]: 29.1 µM (≈ 50 µg/mL)
MIC [21]: 3.64 µM (≈ 6.25 µg/mL)
MIC [22]: 3.64 µM (≈ 6.25 µg/mL)
SMILES: CC[C@H](C)[C@H](NC(=O)[C@H](CC(C)C)NC(=O)[C@@H]1CCCN1C(=O)[C@H](CCCCN)NC(=O)[C@H](CCCCN)NC(=O)[C@H](Cc1c[nH]c2ccccc12)NC(=O)[C@@H]1CCCN1C(=O)[C@H](CCCCN)NC(=O)[C@H](CC(C)C)NC(=O)[C@@H]1CCCN1C(=O)[C@H](Cc1c[nH]c2ccccc12)NC(=O)[C@H](CCCN=C(N)N)NC(=O)[C@@H](N)CCCN=C(N)N)C(N)=O [RRWPLKPWKKPLI]

MIC [23]: 5.06 µM (≈ 22.1 µg/mL)
MIC (Micrococcus luteus): 0.78 µM (≈ 3.41 µg/mL)
MIC (Vibrio anguillarum): 6.25 µM (≈ 27.3 µg/mL)
MIC (Vibrio harveyi): 1.56 µM (≈ 6.82 µg/mL)
MIC (Escherichia coli 363): ≥ 50 µM
MIC (Aeromonas hydrophila): ≥ 50 µM
MIC (Aerococcus viridans): 0.39 µM (≈ 1.7 µg/mL)
MIC (Bacillus subtilis): 12.5 µM and 10.1 µM
SMILES: CC[C@H](C)[C@@H]1NC(=O)[C@@H]2CSSC[C@H](NC(=O)[C@@H]3CCCN3C(=O)[C@H](CO)NC(=O)[C@H](CCCN=C(N)N)NC1=O)C(=O)N1CCC[C@H]1C(=O)N[C@H](C(=O)N[C@@H](C)C(=O)N[C@@H](CC(N)=O)C(=O)N[C@@H](Cc1ccc(O)cc1)C(=O)NCC(=O)O)CSSC[C@H](NC(=O)CNC(=O)[C@@H]1CCCN1C(=O)[C@H](CCCN=C(N)N)NC(=O)CNC(=O)CNC(=O)[C@H](Cc1ccccc1)NC(=O)[C@H](CCC(N)=O)NC(=O)CNC(=O)CNC(=O)[C@@H](NC(=O)[C@H](Cc1ccccc1)NC(=O)[C@@H]1CCCN1C(=O)[C@H](CCCN=C(N)N)NC(=O)CNC(=O)CNC(=O)[C@H](Cc1ccccc1)NC(=O)[C@@H]1CCCN1C(=O)[C@H](CCCN=C(N)N)NC(=O)CNC(=O)[C@H](Cc1ccc(O)cc1)NC(=O)[C@H](CCCN=C(N)N)NC(=O)[C@H](CCCN=C(N)N)NC(=O)[C@H](CO)NC(=O)[C@@H](NC(=O)[C@H](CCCN=C(N)N)NC(=O)[C@@H]1CCCN1C(=O)[C@@H](N)CO)C(C)C)C(C)C)C(=O)N[C@@H](C(C)C)C(=O)N2 [SPRVSRRYGRPFGGRPFVGGQFGGRPGCVCIRSPCPCANYG]
MIC [7]: 12.5 µM (≈ 54.6 µg/mL)
